Molecules are shown by their SMILES.

Data set [1] is described as follows: Highest frequency of moderate liver toxicity observed during clinical trials, expressed as a percentage. [column '% BIOL' in source]. The note with it: human.
A short description of data set [2]: Highest frequency of acute liver toxicity observed during clinical trials, expressed as a percentage. [column '% AIGUE' in source]. Particulars: human.
Data set [3] in a line: Times to onset, minimal and maximal, observed in the indexed observations. [column 'DELAI' in source]. Particulars: human.
The conditions of data set [4]: human, serum.
For data set [5] the following is noted: human, serum. This is another data set of the same source.
The conditions of data set [6]: human.
For data set [7] the following is noted: human. This is another data set of the same source.
For data set [8] the following is noted: human. This is another data set of the same source.
For data set [9] the following is noted: human, serum, 4383 h.
The conditions of data set [10]: human. This is another data set of the same source.
For data set [11] the following is noted: human. The source holds these as a separate data set.
The conditions of data set [12]: human. The source holds these as a separate data set.
For data set [13] the following is noted: human. The source holds these as a separate data set.
The conditions of data set [14]: human. This is another data set of the same source.
For data set [15] the following is noted: human. This is another data set of the same source.
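For Hepatotoxicity (association with vascular disease) in this document: count of indexed literature references reporting vascular liver injury in humans, e.g. peliosis hepatitis, hepatic veno-occlusive disease or Budd-Chiari syndrome.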
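For Hepatotoxicity (benign tumour) in this document: value is a count of indexed literature references citing a benign tumour confirmed by histopathology.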
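For Hepatotoxicity (choleostasis) in this document: human cholestatic liver injury, shown by histopathology or by peak ALT or AST elevation over alkaline phosphatase ratio below 2, value counts indexed literature reports.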
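For Hepatotoxicity (chronic liver disease) in this document: chronic liver injury confirmed by histopathology or persistently raised serum aminotransferase activity beyond 6 months, value given as the count of indexed literature references.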
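For Hepatotoxicity (cirrhosis) in this document: value is a count of indexed literature references reporting cirrhosis confirmed by histopathology.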
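For Hepatotoxicity (cytolytic) in this document: human cytolytic liver injury, shown by histopathology or by a ratio above 5 of peak ALT or AST elevation to alkaline phosphatase elevation, value counts indexed references.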
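For Hepatotoxicity (granulomatous hepatitis) in this document: value is a count of indexed literature references reporting granulomatous liver disease confirmed by histopathology.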
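For Hepatotoxicity (malignant tumour) in this document: malignant tumour confirmed by histopathology, value gives the count of indexed literature references reporting it.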
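For Hepatotoxicity (severe hepatitis) in this document: human clinical data: severe hepatitis, meaning potentially life-threatening liver failure or clinically observed cases, the value counts how many indexed literature references report it.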
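For Hepatotoxicity (steatosis) in this document: steatosis confirmed by histopathology, value is the count of indexed references.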

On to `C[C@H]1COc2c(N3CCN(C)CC3)c(F)cc3c(=O)c(C(=O)O)cn1c23.C[C@H]1COc2c(N3CCN(C)CC3)c(F)cc3c(=O)c(C(=O)O)cn1c23.O` [LEVOFLOXACIN], for which the “Hepatotoxicity (moderate)” value stood at 30% in data set [1] and 17 in [4]. In addition, the “Hepatotoxicity (acute)” value in [2] is reported as 0%; in data set [5], 7. Also, the “Hepatotoxicity (time to onset)” value in data set [3] worked out at 2 days - 3 weeks. Also, the “Hepatotoxicity (cytolytic)” value in data set [6] came out at 6. Further, in [7], the “Hepatotoxicity (choleostasis)” value was found to be 2. Moreover, in data set [8], the “Hepatotoxicity (severe hepatitis)” value was found to be 5. The “Hepatotoxicity (chronic liver disease)” value in data set [9] turned out to be 0. In data set [10], the “Hepatotoxicity (cirrhosis)” value came to 0. Further, in [11], the “Hepatotoxicity (granulomatous hepatitis)” value came out at 0. For the same molecule, in data set [12], the “Hepatotoxicity (association with vascular disease)” value came to 0. Moreover, in data set [13], the “Hepatotoxicity (steatosis)” value was 0. Besides, in data set [14], the “Hepatotoxicity (malignant tumour)” value was 0. The “Hepatotoxicity (benign tumour)” value in data set [15] amounted to 0.

For `CC1Cc2ccccc2N1NC(=O)c1ccc(Cl)c(S(N)(=O)=O)c1` (stereo not given) [INDAPAMIDE], the entries for the “Hepatotoxicity (moderate)” value in data set [1] (Liver) and in data set [4] were 0% and 1, respectively. Also, the figures for the “Hepatotoxicity (acute)” value in [2] (Liver) and in [5] were 0% and 4, respectively. Moreover, the “Hepatotoxicity (time to onset)” value in data set [3] turned out to be 6 months - 5 years. Further, the “Hepatotoxicity (cytolytic)” value in data set [6] worked out at 3. In addition, the “Hepatotoxicity (choleostasis)” value in data set [7] is on record as 1. In addition, in data set [8] (Liver), the “Hepatotoxicity (severe hepatitis)” value turned out to be 1. For the same molecule, the “Hepatotoxicity (chronic liver disease)” value in [9] is reported as 0. Besides, the “Hepatotoxicity (cirrhosis)” value in [10] is recorded as 0. Also, the “Hepatotoxicity (granulomatous hepatitis)” value in data set [11] was 0. Also, the “Hepatotoxicity (association with vascular disease)” value in data set [12] worked out at 0. In addition, the “Hepatotoxicity (steatosis)” value in data set [13] amounted to 0. Also, the “Hepatotoxicity (malignant tumour)” value in [14] was 0. The “Hepatotoxicity (benign tumour)” value in data set [15] was found to be 0.

As to `COc1ccc2c(c1)N(C[C@H](C)CN(C)C)c1ccccc1S2` [LEVOMEPROMAZINE], the “Hepatotoxicity (moderate)” value turned out to be 4.5% in [1] and 2 in data set [4]. In addition, the entries for the “Hepatotoxicity (acute)” value in [2] and in data set [5] were 2.7% and 4, respectively. Further, the “Hepatotoxicity (time to onset)” value in [3] turned out to be 1.2 months - 2 months. For the same molecule, the “Hepatotoxicity (cytolytic)” value in [6] was 1. The “Hepatotoxicity (choleostasis)” value in data set [7] was 3. Moreover, in data set [8], the “Hepatotoxicity (severe hepatitis)” value is reported as 0. For the same molecule, the “Hepatotoxicity (chronic liver disease)” value in data set [9] was 0. Also, the “Hepatotoxicity (cirrhosis)” value in [10] turned out to be 0. The “Hepatotoxicity (granulomatous hepatitis)” value in [11] was found to be 0. In addition, in [12], the “Hepatotoxicity (association with vascular disease)” value was 0. Moreover, the “Hepatotoxicity (steatosis)” value in [13] is 0. Further, in data set [14], the “Hepatotoxicity (malignant tumour)” value was found to be 0. The “Hepatotoxicity (benign tumour)” value in data set [15] is 0.

`CC#C[C@]1(O)CC[C@H]2[C@@H]3CCC4=CC(=O)CCC4=C3[C@@H](c3ccc(N(C)C)cc3)C[C@@]21C` [MIFEPRISTONE]: the “Hepatotoxicity (moderate)” value in [1] came to 14.3%; in data set [4] it was 2. Further, the “Hepatotoxicity (acute)” value is listed as 0% in data set [2] and 1 in [5]. For the same molecule, the “Hepatotoxicity (time to onset)” value in data set [3] was 3 months - 5 months. In addition, in data set [6], the “Hepatotoxicity (cytolytic)” value was 1. Also, the “Hepatotoxicity (choleostasis)” value in [7] is given as 0. Also, the “Hepatotoxicity (severe hepatitis)” value in data set [8] is recorded as 0. Besides, the “Hepatotoxicity (chronic liver disease)” value in [9] is on record as 0. The “Hepatotoxicity (cirrhosis)” value in data set [10] was determined as 0. Also, the “Hepatotoxicity (granulomatous hepatitis)” value in [11] was 0. For the same molecule, the “Hepatotoxicity (association with vascular disease)” value in data set [12] was found to be 0. The “Hepatotoxicity (steatosis)” value in data set [13] was 0. Also, in data set [14], the “Hepatotoxicity (malignant tumour)” value is 0. Also, the “Hepatotoxicity (benign tumour)” value in data set [15] is recorded as 0.

Consider `CCN(CC)CCn1c(-c2ccccc2)noc1=N` [IMOLAMINE], for which the figures for the “Hepatotoxicity (moderate)” value in data set [1] and in data set [4] were 0% and 0, respectively. The “Hepatotoxicity (acute)” value amounted to 0% in data set [2] and 0 in data set [5]. In addition, the “Hepatotoxicity (time to onset)” value in data set [3] is recorded as 2 months. The “Hepatotoxicity (cytolytic)” value in data set [6] came to 0. For the same molecule, the “Hepatotoxicity (choleostasis)” value in data set [7] is 0. The “Hepatotoxicity (severe hepatitis)” value in data set [8] is recorded as 0. Also, the “Hepatotoxicity (chronic liver disease)” value in data set [9] amounted to 1. Further, in [10], the “Hepatotoxicity (cirrhosis)” value is reported as 0. Besides, the “Hepatotoxicity (granulomatous hepatitis)” value in data set [11] is 0. Also, the “Hepatotoxicity (association with vascular disease)” value in data set [12] worked out at 0. The “Hepatotoxicity (steatosis)” value in data set [13] is reported as 0. Besides, the “Hepatotoxicity (malignant tumour)” value in data set [14] is recorded as 0. Besides, in [15], the “Hepatotoxicity (benign tumour)” value is listed as 0.

As to `Nc1c2c(nc3ccccc13)CCCC2O` (stereo not given) [VELNACRINE], the “Hepatotoxicity (moderate)” value was 35% in data set [1] and 8 in data set [4]. The “Hepatotoxicity (acute)” value in [2] is 7.3%; in [5], 2. The “Hepatotoxicity (time to onset)” value in data set [3] is listed as 4 weeks - 3 months. In addition, the “Hepatotoxicity (cytolytic)” value in data set [6] was 2. For the same molecule, in data set [7], the “Hepatotoxicity (choleostasis)” value is 0. The “Hepatotoxicity (severe hepatitis)” value in data set [8] was determined as 0. For the same molecule, the “Hepatotoxicity (chronic liver disease)” value in data set [9] came out at 0. The “Hepatotoxicity (cirrhosis)” value in [10] came out at 0. Further, the “Hepatotoxicity (granulomatous hepatitis)” value in data set [11] came to 0. In addition, in data set [12], the “Hepatotoxicity (association with vascular disease)” value is given as 0. The “Hepatotoxicity (steatosis)” value in data set [13] came to 0. Further, in [14], the “Hepatotoxicity (malignant tumour)” value is listed as 0. In [15], the “Hepatotoxicity (benign tumour)” value stood at 0.

With `O=C(NCN1CCOCC1)c1cnccn1` [MORINAMIDE], the entries for the “Hepatotoxicity (moderate)” value in [1] and in data set [4] were 1.8% and 2, respectively. Besides, the “Hepatotoxicity (acute)” value is recorded as 0.5% in data set [2] and 2 in data set [5]. The “Hepatotoxicity (time to onset)” value in [3] amounted to 4 months. Moreover, the “Hepatotoxicity (cytolytic)” value in [6] stood at 2. The “Hepatotoxicity (choleostasis)” value in [7] was 0. In addition, the “Hepatotoxicity (severe hepatitis)” value in data set [8] was 1. In data set [9], the “Hepatotoxicity (chronic liver disease)” value is 0. Also, the “Hepatotoxicity (cirrhosis)” value in data set [10] is listed as 0. In addition, the “Hepatotoxicity (granulomatous hepatitis)” value in data set [11] is on record as 0. Besides, the “Hepatotoxicity (association with vascular disease)” value in [12] is 0. For the same molecule, in data set [13], the “Hepatotoxicity (steatosis)” value was determined as 0. For the same molecule, the “Hepatotoxicity (malignant tumour)” value in [14] came out at 0. Moreover, the “Hepatotoxicity (benign tumour)” value in data set [15] came out at 0.

`CCN(CC)C(=O)/C(C#N)=C/c1cc(O)c(O)c([N+](=O)[O-])c1` [ENTACAPONE]: the “Hepatotoxicity (moderate)” value is 0% in [1] and 1 in [4]. For the same molecule, the “Hepatotoxicity (acute)” value was 0% in data set [2] and 2 in data set [5]. In data set [3], the “Hepatotoxicity (time to onset)” value came to 2 weeks - 6 weeks. In addition, the “Hepatotoxicity (cytolytic)” value in data set [6] is 0. For the same molecule, the “Hepatotoxicity (choleostasis)” value in data set [7] amounted to 2. Further, the “Hepatotoxicity (severe hepatitis)” value in [8] amounted to 0. The “Hepatotoxicity (chronic liver disease)” value in data set [9] amounted to 0. In addition, in data set [10], the “Hepatotoxicity (cirrhosis)” value is 0. For the same molecule, the “Hepatotoxicity (granulomatous hepatitis)” value in data set [11] is 0. The “Hepatotoxicity (association with vascular disease)” value in data set [12] is given as 0. Further, in data set [13], the “Hepatotoxicity (steatosis)” value came to 0. The “Hepatotoxicity (malignant tumour)” value in [14] is recorded as 0. In [15], the “Hepatotoxicity (benign tumour)” value was determined as 0.

The values above are taken from ChEMBL document CHEMBL3137667, “[Drug-induced liver injury; fourteenth updated edition of the bibliographic database of liver injuries and related drugs]” (Gastroenterol Clin Biol, 2004).
